Data from ChEMBL document CHEMBL1201862, “PubChem BioAssay data set” (2004).
Calls of active or inactive are those of the source.

How the values were obtained:
[1] = target: Mitochondrial peptide methionine sulfoxide reductase (Bos taurus, UniProt P54149); assay: Absorbance-based biochemical high throughput dose response assay for activators of Methionine sulfoxide reductase A (MsrA).; assay type: functional
[2] = target: T1, Replicative DNA helicase DnaB (Mycobacterium tuberculosis, UniProt P9WMR3); assay: DnaB intein splicing inhibitors, dose response, biochemical, cell-free fluorescence (AID 449749); assay type: functional
T1 sequence (P9WMR3 whole entry): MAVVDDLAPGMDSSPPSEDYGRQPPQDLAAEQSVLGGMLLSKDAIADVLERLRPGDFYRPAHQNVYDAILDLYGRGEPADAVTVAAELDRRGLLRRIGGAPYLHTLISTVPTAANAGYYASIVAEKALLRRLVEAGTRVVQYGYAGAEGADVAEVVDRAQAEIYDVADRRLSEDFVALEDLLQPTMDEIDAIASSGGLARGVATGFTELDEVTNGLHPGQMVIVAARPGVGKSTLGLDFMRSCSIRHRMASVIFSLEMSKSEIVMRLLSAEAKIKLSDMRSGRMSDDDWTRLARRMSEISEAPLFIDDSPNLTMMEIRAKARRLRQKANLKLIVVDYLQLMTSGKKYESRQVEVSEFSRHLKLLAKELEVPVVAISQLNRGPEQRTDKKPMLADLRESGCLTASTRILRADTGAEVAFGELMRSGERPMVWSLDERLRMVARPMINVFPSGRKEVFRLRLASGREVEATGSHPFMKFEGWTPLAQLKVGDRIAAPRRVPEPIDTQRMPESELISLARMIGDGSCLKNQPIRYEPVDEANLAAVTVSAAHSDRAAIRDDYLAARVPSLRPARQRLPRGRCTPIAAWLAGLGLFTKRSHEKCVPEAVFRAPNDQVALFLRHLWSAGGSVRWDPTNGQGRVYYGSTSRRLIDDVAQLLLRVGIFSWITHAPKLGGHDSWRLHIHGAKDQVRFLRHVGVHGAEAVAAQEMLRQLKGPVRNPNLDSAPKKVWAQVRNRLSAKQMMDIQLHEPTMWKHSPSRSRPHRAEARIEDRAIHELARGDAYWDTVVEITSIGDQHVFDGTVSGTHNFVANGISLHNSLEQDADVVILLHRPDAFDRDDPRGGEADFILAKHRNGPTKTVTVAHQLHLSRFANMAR

[3] = C. albicans growth with fluconazole, confirmation, fluorescence, retest (AID 2467); assay type: functional, cell-based
Phospholipase A2 = Phospholipase A2 (Homo sapiens, UniProt P04054); assay type: functional;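 further: confirmatory dose-response counterscreen on phospholipase A2, testing hits that came from an ultra-high-throughput screen for ATG4B inhibitors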
Chain of Phospholipase A2 (P04054 whole entry): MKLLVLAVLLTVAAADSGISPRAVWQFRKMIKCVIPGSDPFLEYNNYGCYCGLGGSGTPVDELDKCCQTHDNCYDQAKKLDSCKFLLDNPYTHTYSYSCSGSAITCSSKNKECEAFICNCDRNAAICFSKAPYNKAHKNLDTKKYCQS

[4] = target: Serine/threonine-protein kinase pim-2 (Homo sapiens, UniProt Q9P1W9); assay type: functional;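 further: value comes from a broad kinase panel profiling study in which PIM2 was one of the panel members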
[5] = target: Serine/threonine-protein kinase 3 (Homo sapiens, UniProt Q13188); assay type: functional;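 further: measured as one member of a kinome-wide kinase panel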
[6] = target: Non-receptor tyrosine-protein kinase TYK2 (Homo sapiens, UniProt P29597); assay type: functional
[7] = target: RAC-gamma serine/threonine-protein kinase (Homo sapiens, UniProt Q9Y243); assay type: functional
[8] = target: Protein kinase C delta type (Homo sapiens, UniProt Q05655); assay type: functional
[9] = target: Inhibitor of nuclear factor kappa-B kinase subunit alpha (Homo sapiens, UniProt O15111); assay type: functional
[10] = target: Tyrosine-protein kinase Blk (Homo sapiens, UniProt P51451); assay type: functional;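 further: obtained as one member of a kinome-wide kinase assay panel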
Insulin receptor = Insulin receptor (Homo sapiens, UniProt P06213); assay type: functional;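 further: insulin receptor kinase tested as one member of a kinome-wide kinase panel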
Chain of Insulin receptor (P06213 28-758 limits assumed): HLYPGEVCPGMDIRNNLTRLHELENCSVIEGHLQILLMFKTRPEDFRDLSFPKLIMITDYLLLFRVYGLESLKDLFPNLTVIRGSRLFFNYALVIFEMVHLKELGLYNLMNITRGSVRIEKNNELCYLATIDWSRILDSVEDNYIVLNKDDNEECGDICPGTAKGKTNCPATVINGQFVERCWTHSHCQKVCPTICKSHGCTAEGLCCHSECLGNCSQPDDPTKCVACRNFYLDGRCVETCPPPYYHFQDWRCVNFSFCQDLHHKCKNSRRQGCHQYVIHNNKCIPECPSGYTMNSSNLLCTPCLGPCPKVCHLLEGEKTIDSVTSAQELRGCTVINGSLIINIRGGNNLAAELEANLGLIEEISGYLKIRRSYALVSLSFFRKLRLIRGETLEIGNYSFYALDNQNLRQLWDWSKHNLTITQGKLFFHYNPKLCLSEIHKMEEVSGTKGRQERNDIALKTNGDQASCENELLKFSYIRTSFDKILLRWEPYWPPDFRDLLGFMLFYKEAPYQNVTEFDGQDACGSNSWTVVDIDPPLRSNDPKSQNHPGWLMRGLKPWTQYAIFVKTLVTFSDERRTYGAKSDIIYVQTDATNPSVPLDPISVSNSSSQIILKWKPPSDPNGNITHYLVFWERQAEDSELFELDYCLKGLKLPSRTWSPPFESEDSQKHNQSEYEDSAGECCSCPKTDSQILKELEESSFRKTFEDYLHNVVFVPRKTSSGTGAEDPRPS
Chain of Insulin receptor (P06213 763-1382 limits assumed): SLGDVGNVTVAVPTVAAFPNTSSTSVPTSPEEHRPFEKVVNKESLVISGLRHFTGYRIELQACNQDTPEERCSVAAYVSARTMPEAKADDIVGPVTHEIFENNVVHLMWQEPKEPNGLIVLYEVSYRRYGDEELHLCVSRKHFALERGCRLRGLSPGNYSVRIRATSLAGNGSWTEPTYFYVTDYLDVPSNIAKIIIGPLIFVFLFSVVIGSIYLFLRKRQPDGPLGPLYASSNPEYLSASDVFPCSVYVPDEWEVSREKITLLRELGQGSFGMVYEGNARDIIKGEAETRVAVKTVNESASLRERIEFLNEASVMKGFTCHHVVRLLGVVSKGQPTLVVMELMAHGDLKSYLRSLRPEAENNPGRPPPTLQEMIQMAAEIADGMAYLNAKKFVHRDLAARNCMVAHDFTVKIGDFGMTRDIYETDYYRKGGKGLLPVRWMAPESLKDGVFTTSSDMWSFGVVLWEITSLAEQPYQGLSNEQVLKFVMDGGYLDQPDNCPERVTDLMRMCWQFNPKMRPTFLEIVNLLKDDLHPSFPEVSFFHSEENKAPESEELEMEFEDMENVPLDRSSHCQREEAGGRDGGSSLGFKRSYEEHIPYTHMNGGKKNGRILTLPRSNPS

[11] = target: Casein kinase II subunit alpha (Homo sapiens, UniProt P68400); assay type: functional
Chain of Casein kinase II subunit alpha (P68400 whole entry): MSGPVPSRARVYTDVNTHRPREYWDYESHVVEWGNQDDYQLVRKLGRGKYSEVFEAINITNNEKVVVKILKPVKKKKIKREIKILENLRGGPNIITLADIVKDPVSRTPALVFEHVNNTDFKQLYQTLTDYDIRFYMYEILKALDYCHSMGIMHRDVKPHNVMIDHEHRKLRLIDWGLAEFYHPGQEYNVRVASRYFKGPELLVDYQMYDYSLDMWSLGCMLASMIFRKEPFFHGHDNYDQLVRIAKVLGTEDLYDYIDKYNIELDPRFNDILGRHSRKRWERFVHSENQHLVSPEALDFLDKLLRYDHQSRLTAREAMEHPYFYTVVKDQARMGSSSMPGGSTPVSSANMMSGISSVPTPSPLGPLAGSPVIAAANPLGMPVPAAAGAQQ

[12] = target: Receptor tyrosine-protein kinase erbB-2 (Homo sapiens, UniProt P04626); assay: Navigating the Kinome. Panel member name: ERBB2; assay type: functional
[13] = target: Mitogen-activated protein kinase 12 (Homo sapiens, UniProt P53778); assay type: functional;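 further: measured as one member of a kinome-wide kinase profiling panel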
[14] = target: Calcium/calmodulin-dependent protein kinase type 1 (Homo sapiens, UniProt Q14012); assay type: functional
[15] = target: Mast/stem cell growth factor receptor Kit (Homo sapiens, UniProt P10721); assay type: functional;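 further: KIT entry within a kinase panel assay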
[16] = target: Serine/threonine-protein kinase PLK1 (Homo sapiens, UniProt P53350); assay type: functional;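 further: PLK1 measured as one member of a kinome-wide profiling panel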
[17] = target: Platelet-derived growth factor receptor beta (Homo sapiens, UniProt P09619); assay type: functional;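 further: value comes from a kinome panel, with PDGFRB tested as one panel member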
[18] = target: Macrophage-stimulating protein receptor (Homo sapiens, UniProt Q04912); assay: Navigating the Kinome. Panel member name: MST1R; assay type: functional
[19] = target: Leukocyte tyrosine kinase receptor (Homo sapiens, UniProt P29376); assay: Navigating the Kinome. Panel member name: LTK; assay type: functional
[20] = target: Serine/threonine-protein kinase D3 (Homo sapiens, UniProt O94806); assay type: functional;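 further: determined within a kinase panel screen, with PRKCN as the panel member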
Chain of Serine/threonine-protein kinase D3 (O94806 whole entry): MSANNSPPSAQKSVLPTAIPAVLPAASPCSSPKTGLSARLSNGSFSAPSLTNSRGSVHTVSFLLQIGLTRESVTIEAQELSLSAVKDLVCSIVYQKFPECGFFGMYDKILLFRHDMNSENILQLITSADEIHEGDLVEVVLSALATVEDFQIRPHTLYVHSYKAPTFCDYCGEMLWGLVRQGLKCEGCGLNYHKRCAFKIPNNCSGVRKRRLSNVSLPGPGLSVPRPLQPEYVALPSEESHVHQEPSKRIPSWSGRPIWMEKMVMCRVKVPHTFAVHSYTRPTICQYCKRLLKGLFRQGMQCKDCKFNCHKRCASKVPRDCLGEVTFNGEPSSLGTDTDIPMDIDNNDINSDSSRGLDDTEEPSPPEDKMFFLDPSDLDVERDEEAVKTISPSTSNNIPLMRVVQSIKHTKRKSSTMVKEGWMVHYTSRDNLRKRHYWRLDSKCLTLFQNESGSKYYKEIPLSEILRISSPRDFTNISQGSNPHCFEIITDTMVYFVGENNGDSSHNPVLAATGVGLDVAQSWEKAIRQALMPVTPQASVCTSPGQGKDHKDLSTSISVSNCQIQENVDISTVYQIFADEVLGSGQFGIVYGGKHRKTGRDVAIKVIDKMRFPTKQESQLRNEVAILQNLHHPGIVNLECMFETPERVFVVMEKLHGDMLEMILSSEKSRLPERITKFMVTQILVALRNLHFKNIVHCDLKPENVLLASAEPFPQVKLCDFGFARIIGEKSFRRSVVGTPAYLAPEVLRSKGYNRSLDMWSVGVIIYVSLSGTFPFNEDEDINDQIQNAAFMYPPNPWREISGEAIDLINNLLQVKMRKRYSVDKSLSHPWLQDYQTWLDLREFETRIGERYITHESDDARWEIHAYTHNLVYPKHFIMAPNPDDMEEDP

[21] = target: Dual specificity protein kinase CLK4 (Homo sapiens, UniProt Q9HAZ1); assay type: functional
[22] = target: Dual specificity protein kinase CLK2 (Homo sapiens, UniProt P49760); assay type: functional
Chain of Dual specificity protein kinase CLK2 (P49760 whole entry): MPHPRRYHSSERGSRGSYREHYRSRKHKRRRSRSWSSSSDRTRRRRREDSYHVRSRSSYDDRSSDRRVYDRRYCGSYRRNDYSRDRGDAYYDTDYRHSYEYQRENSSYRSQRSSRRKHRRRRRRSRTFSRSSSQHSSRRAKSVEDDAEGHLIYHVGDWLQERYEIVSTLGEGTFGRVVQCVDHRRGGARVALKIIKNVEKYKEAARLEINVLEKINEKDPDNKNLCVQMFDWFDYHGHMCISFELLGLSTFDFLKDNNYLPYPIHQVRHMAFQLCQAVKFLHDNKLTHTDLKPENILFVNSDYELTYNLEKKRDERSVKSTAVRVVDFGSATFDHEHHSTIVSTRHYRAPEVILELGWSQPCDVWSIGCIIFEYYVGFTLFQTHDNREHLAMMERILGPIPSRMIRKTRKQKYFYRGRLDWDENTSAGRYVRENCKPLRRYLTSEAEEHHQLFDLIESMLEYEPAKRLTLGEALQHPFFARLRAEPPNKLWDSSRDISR

[23] = target: Dual specificity tyrosine-phosphorylation-regulated kinase 1B (Homo sapiens, UniProt Q9Y463); assay: Navigating the Kinome. Panel member name: DYRK1B; assay type: functional
[24] = target: Protein kinase C theta type (Homo sapiens, UniProt Q04759); assay: Navigating the Kinome. Panel member name: PRKCQ; assay type: functional
Focal adhesion kinase 1 = Focal adhesion kinase 1 (Homo sapiens, UniProt Q05397); assay type: functional;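 further: measured as one member of a kinome panel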
[25] = target: Tyrosine-protein kinase receptor TYRO3 (Homo sapiens, UniProt Q06418); assay type: functional;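 further: TYRO3 value obtained as one member of a kinome-wide profiling panel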
[26] = target: G protein-coupled receptor kinase 5 (Homo sapiens, UniProt P34947); assay: Navigating the Kinome. Panel member name: GPRK5; assay type: functional
Chain of G protein-coupled receptor kinase 5 (P34947 whole entry): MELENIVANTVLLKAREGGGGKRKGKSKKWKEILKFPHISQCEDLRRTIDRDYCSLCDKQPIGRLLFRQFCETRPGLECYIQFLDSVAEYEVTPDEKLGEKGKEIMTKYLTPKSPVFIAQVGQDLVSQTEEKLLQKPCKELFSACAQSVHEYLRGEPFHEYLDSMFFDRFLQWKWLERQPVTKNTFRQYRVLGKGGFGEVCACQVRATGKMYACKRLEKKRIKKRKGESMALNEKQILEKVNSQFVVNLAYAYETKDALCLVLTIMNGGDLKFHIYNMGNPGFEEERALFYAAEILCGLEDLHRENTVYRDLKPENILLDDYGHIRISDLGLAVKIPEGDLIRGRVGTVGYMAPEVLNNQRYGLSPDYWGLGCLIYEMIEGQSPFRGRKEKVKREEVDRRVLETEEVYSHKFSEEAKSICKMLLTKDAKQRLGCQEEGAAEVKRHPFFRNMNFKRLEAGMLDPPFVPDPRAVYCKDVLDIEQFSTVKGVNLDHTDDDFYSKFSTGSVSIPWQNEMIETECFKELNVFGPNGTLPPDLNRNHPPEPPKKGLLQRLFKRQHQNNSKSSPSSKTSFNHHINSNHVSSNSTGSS

[27] = target: Dual specificity mitogen-activated protein kinase kinase 2 (Homo sapiens, UniProt P36507); assay: Navigating the Kinome. Panel member name: MAP2K2; assay type: functional
Chain of Dual specificity mitogen-activated protein kinase kinase 2 (P36507 whole entry): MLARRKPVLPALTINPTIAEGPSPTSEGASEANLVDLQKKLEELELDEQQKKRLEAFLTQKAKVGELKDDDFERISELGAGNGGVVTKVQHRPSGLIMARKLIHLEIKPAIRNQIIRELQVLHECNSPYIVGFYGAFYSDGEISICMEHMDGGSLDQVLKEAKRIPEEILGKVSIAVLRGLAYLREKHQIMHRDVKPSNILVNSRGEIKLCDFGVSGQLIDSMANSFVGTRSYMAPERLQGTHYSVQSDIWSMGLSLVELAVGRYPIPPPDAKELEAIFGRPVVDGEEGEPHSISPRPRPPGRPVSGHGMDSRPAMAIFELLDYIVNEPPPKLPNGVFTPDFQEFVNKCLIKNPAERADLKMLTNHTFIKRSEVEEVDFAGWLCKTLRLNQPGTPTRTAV

[28] = target: Calcium/calmodulin-dependent protein kinase type II subunit alpha (Homo sapiens, UniProt Q9UQM7); assay: Navigating the Kinome. Panel member name: CAMK2A; assay type: functional
[29] = target: Inhibitor of nuclear factor kappa-B kinase subunit epsilon (Homo sapiens, UniProt Q14164); assay: Navigating the Kinome. Panel member name: IKBKE; assay type: functional
Chain of Inhibitor of nuclear factor kappa-B kinase subunit epsilon (Q14164 whole entry): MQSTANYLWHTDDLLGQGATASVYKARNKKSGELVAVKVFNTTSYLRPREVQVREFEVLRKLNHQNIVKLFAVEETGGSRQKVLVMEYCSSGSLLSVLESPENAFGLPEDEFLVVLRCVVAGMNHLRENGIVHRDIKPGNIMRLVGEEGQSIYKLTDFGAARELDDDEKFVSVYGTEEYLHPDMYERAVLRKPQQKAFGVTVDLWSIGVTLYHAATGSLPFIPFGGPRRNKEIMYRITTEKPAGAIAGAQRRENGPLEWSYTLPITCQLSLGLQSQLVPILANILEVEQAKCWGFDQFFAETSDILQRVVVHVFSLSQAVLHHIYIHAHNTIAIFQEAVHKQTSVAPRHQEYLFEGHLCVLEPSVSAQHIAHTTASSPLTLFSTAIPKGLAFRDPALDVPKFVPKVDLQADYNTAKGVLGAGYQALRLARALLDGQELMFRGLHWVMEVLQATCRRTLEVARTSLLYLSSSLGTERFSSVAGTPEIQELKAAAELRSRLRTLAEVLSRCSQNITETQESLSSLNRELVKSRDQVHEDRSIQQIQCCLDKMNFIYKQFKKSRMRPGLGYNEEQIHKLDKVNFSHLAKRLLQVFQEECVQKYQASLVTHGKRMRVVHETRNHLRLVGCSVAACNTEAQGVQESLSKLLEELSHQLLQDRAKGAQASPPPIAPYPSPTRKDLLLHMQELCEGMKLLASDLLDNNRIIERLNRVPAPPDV

[30] = target: ALK tyrosine kinase receptor (Homo sapiens, UniProt Q9UM73); assay type: functional;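 further: ALK tested as one member of a kinase panel screen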
[31] = target: Tyrosine-protein kinase BTK (Homo sapiens, UniProt Q06187); assay type: functional

## O=C1C=C(NCc2ccccc2)c2ccccc2C1=O
[1]
  EC50: 63.3 µM (inactive)
[2]
  AC50: > 380 µM (inconclusive)
[3]
  EC50: 1.84 µM (active)

## O=C(O)c1[nH]c2ccccc2c1C(c1cc(Cl)cc([N+](=O)[O-])c1O)c1c(C(=O)O)[nH]c2ccccc12
Phospholipase A2
  IC50: 9.04 µM (active)

## CCOC(=O)c1cn(-c2ccc(O)cc2C)c2cc(-c3ccncc3)ccc2c1=O
[4]
  Ki: > 1.58 µM (inactive)
[5]
  Ki: > 7.94 µM (inactive)
[6]
  Ki: > 2 µM (inactive)
[7]
  Ki: > 10 µM (inactive)
[8]
  Ki: 0.501 µM (active)
[9]
  Ki: > 3.98 µM (inactive)
[10]
  Ki: > 1.58 µM (inactive)
Insulin receptor
  Ki: > 5.01 µM (inactive)
[11]
  Ki: > 6.31 µM (inactive)
[12]
  Ki: > 1.58 µM (inactive)
[13]
  Ki: > 6.31 µM (inactive)
[14]
  Ki: > 7.94 µM (inactive)
[15]
  Ki: > 1.26 µM (inactive)
[16]
  Ki: > 7.94 µM (inactive)

## Cc1cc(=O)[nH]nc1-c1ccc(NC(=O)Nc2cc(C(F)(F)F)ccc2F)c(Cl)c1
[17]
  Ki: 0.158 µM (active)
[18]
  Ki: > 3.98 µM (inactive)
[19]
  Ki: > 2.51 µM (inactive)
[20]
  Ki: > 3.98 µM (inactive)
[21]
  Ki: > 2.51 µM (inactive)
[22]
  Ki: > 3.98 µM (inactive)
[23]
  Ki: > 2.51 µM (inactive)
[24]
  Ki: > 2.51 µM (inactive)
Focal adhesion kinase 1
  Ki: > 6.31 µM (inactive)
[25]
  Ki: > 3.16 µM (inactive)
[26]
  Ki: > 3.98 µM (inactive)
[27]
  Ki: > 3.98 µM (inactive)
[28]
  Ki: > 3.98 µM (inactive)
[29]
  Ki: > 3.16 µM (inactive)
[30]
  Ki: > 6.31 µM (inactive)
[31]
  Ki: > 6.31 µM (inactive)
